Results: the supplement of paper PMC11061612

What was measured:
Experiment in all cases: combination Emax (second highest fraction inhibited in the dose matrix, 72 h); higher = more inhibition; extreme values may be limits of the assay
786-0 (Kidney Carcinoma) = test system: 786-0 (Kidney Carcinoma)
Procedure, shortened: (§1)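 After 24 hours at 37°C and 5% CO2 in 1536-well plates, cells in DMEM/F12 or RPMI plus 10% FBS received two-drug dose matrices for 72 hours. Viability came from CellTiter-Glo 2.0 luminescence and was scaled as inhibition, anchored at 0 by vehicle wells and at 1 by blank wells. Combination Emax is taken as the second-highest inhibition in the matrix, and Bliss excess as the observed combination effect less EA + EB − EA·EB, with EA and EB the single-agent effects.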

[1] = test system: JHH-1 (Hepatocellular Carcinoma)
Procedure, shortened: as §1

[2] = test system: OV-90 (Ovarian Carcinoma)
Procedure, shortened: as §1

[3] = test system: Caov-3 (Ovarian Carcinoma)
Procedure, shortened: as §1

[4] = test system: HTC-C3 (Thyroid Gland Carcinoma)
Procedure, shortened: as §1

[5] = test system: NKM-1 (Acute Myeloid Leukemia)
Procedure, shortened: as §1

HuO-3N1 (Osteosarcoma) = test system: HuO-3N1 (Osteosarcoma)
Procedure, shortened: as §1

[6] = test system: RERF-LC-KJ (Lung Adenocarcinoma)
Procedure, shortened: as §1

[7] = test system: AsPC-1 (Pancreatic Carcinoma)
Procedure, shortened: as §1

[8] = test system: RMG-I (Ovarian Carcinoma)
Procedure, shortened: as §1

[9] = test system: LOUCY (T-Lymphoblastic Leukemia)
Procedure, shortened: as §1

[10] = test system: OCI-AML5 (Acute Myeloid Leukemia)
Procedure, shortened: as §1

[11] = test system: PANC-02-03 (Pancreatic Carcinoma)
Procedure, shortened: as §1

[12] = test system: SK-MM-2 (Plasma Cell Myeloma)
Procedure, shortened: as §1

[13] = test system: NCI-H810 (Non-Small Cell Lung Carcinoma)
Procedure, shortened: as §1

[14] = test system: RL95-2 (Endometrial Carcinoma)
Procedure, shortened: as §1

[15] = test system: OVTOKO (Ovarian Carcinoma)
Procedure, shortened: as §1

[16] = test system: KYSE-70 (Esophageal Squamous Cell Carcinoma)
Procedure, shortened: as §1

[17] = test system: NCI-H196 (Small Cell Lung Carcinoma)
Procedure, shortened: as §1

[18] = test system: PC-14 (Lung Adenocarcinoma)
Procedure, shortened: as §1

Structure (SMILES)	combination Emax (786-0 (Kidney Carcinoma))	combination Emax [1]	combination Emax [2]	combination Emax [3]	combination Emax [4]	combination Emax [5]	combination Emax (HuO-3N1 (Osteosarcoma))	combination Emax [6]	combination Emax [7]	combination Emax [8]	combination Emax [9]	combination Emax [10]	combination Emax [11]	combination Emax [12]	combination Emax [13]	combination Emax [14]	combination Emax [15]	combination Emax [16]	combination Emax [17]	combination Emax [18]
CN(CCO)CC[C@H](CSc1ccccc1)Nc1ccc(S(=O)(=O)NC(=O)c2ccc(N3CCC([C@@H](O)c4ccccc4-c4ccc(Cl)cc4)CC3)cc2)cc1S(=O)(=O)C(F)(F)F [AZD4320] + C[C@@H]1COCCN1C2=NC(=NC(=C2)C3(CC3)[S@](=N)(=O)C)C4=C5C=CNC5=NC=C4 [AZD6738] (first compound max 1 µM, 7x7, partner max 10 µM)	0.815	0.838	0.917	0.958	0.881	1	0.479	0.324	0.662	0.882	1	1	0.615	1	0.86	0.751	0.54	0.493	0.397	0.93
CN(CCO)CC[C@H](CSc1ccccc1)Nc1ccc(S(=O)(=O)NC(=O)c2ccc(N3CCC([C@@H](O)c4ccccc4-c4ccc(Cl)cc4)CC3)cc2)cc1S(=O)(=O)C(F)(F)F [AZD4320] + Cc1cc2ncnn2cc1Nc1ncc2c(n1)n(C1CCOCC1)c(=O)n2C [AZD7648] (first compound max 1 µM, 7x7, partner max 10 µM)	0.138	0.382	0.6	0.551	0.342	1	0.139	0.288	0.566	0.826	1	1	0.109	1	0.43	0.0598	0.361	0.132	0.128	0.203
CN(CCO)CC[C@H](CSc1ccccc1)Nc1ccc(S(=O)(=O)NC(=O)c2ccc(N3CCC([C@@H](O)c4ccccc4-c4ccc(Cl)cc4)CC3)cc2)cc1S(=O)(=O)C(F)(F)F [AZD4320] + Cn1cnc2c(F)c(Nc3ccc(Br)cc3Cl)c(C(=O)NOCCO)cc21 [Selumetinib] (first compound max 1 µM, 7x7, partner max 3 µM)	0.307	0.8	0.981	0.803	0.707	1	0.221	0.298	0.759	0.912	1	1	0.55	1	0.615	0.667	0.318	0.229	0.275	0.333
Cc1c2c(nn1C)CSCc1cc(n(C)n1)CSc1cc(c3ccccc3c1)OCCCc1c(C(=O)O)n(C)c3c-2c(Cl)ccc13 [AZD5991] + C1CN(CCC1(C(=O)N[C@@H](CCO)C2=CC=C(C=C2)Cl)N)C3=NC=NC4=C3C=CN4 [Capivasertib] (first compound max 1 µM, 7x7, partner max 3 µM)	0.44	0.373	0.241	0.307	0.179	0.999	0.881	0.495	0.161	0.236	0.926	1	0.179	0.325	0.286	1	0.367	0.246	0.196	0.26
Cc1c2c(nn1C)CSCc1cc(n(C)n1)CSc1cc(c3ccccc3c1)OCCCc1c(C(=O)O)n(C)c3c-2c(Cl)ccc13 [AZD5991] + C=CCn1c(=O)c2cnc(Nc3ccc(N4CCN(C)CC4)cc3)nc2n1-c1cccc(C(C)(C)O)n1 [AZD1775] (first compound max 1 µM, partner max 1 µM)	0.804	0.721	0.521	0.775	0.454	0.979	1	0.563	0.369	0.375	1	1	0.594	0.707	0.949	1	0.618	0.655	0.508	0.921
Cc1c2c(nn1C)CSCc1cc(n(C)n1)CSc1cc(c3ccccc3c1)OCCCc1c(C(=O)O)n(C)c3c-2c(Cl)ccc13 [AZD5991] + CC1(C)CCC(CN2CCN(c3ccc(C(=O)NS(=O)(=O)c4ccc(NCC5CCOCC5)c([N+](=O)[O-])c4)c(Oc4cnc5[nH]ccc5c4)c3)CC2)=C(c2ccc(Cl)cc2)C1 [Venetoclax] (first compound max 1 µM, 7x7, partner max 1 µM)	0.199	0.963	0.246	0.453	0.147	0.999	0.733	0.444	0.12	0.421	1	1	0.138	1	0.533	0.943	0.198	0.103	0.23	0.245
